Where a name gives a salt, the structure may show the parent alone.
Biological target: human NAMPT (Homo sapiens (Human), UniProt P43490)
Assay: NMN fluorescence biochemical assay (human recombinant NAMPT enzyme assay)
Outline: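 NMN formed was detected by fluorescence (Ex/Em 355/460 nm) after acetophenone, KOH and formic acid derivatization. The cell-free reaction ran 60 min at ambient temperature with 6 nM human NAMPT, 150 μM nicotinamide, 20 μM PRPP, 2.5 mM ATP, pH 7.2 HEPES, and compound dose responses.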

Sequence of human NAMPT (P43490 whole entry): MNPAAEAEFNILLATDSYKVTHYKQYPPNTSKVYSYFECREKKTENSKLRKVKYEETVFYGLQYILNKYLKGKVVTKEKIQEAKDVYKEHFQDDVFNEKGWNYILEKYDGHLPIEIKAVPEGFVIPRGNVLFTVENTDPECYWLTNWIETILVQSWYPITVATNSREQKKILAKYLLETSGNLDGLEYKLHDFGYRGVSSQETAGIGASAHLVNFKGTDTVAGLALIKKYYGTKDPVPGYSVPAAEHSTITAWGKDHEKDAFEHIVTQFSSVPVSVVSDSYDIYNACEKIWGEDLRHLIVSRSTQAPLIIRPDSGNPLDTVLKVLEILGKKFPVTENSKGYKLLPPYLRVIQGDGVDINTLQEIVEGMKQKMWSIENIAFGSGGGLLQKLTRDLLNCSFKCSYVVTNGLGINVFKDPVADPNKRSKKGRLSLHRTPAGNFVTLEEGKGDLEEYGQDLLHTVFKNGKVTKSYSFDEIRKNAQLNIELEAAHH

AC1.4 Human [µM]	EC50 [µM]	Compound
1.75	7.22	O=C(Nc1ccc(Cc2ccncc2)cc1)OCc1ccc(C(F)F)cc1 [Compound 196, 4-(difluoromethyl)benzyl (4-(pyridin-4-ylmethyl)phenyl)carbamate]
0.22	44.7	O=C(Nc1ccc(CCC2CCN(C(=O)C3COC3)CC2)cc1)OCc1cnco1 [Compound 13, oxazol-5-ylmethyl (4-(2-(1-(oxetane-3-carbonyl)piperidin-4-yl)ethyl)phenyl)carbamate]
1.40	13.9	COc1ccc(COC(=O)Nc2ccc(CN3CCN(C)CC3=O)cc2)cc1 [Compound 168, (4-methoxyphenyl)methyl N-{4-[(4-methyl-2-oxopiperazin-1-yl)methyl]phenyl}carbamate]
0.13	15.2	O=C(Nc1ccc(CC2CCN(C(=O)N3CCOCC3)CC2)cc1)OCc1cnco1 [Compound 458, oxazol-5-ylmethyl (4-((1-(morpholine-4-carbonyl)piperidin-4-yl)methyl)phenyl)carbamate]
1.59	2.04	O=C(Nc1ccc(CNC(=O)c2ccc(C(F)F)nc2)cc1)OCc1ccc(Cl)cc1 [Compound 185, (4-chlorophenyl)methyl N-[4-({[6-(difluoromethyl)pyridin-3-yl]formamido}methyl)phenyl]carbamate]
0.97	6.46	C[C@H](NC(=O)C1COC1)c1ccc(NC(=O)OCc2ccc(Cl)cc2)cc1 [Compound 122, 4-chlorobenzyl (S)-(4-(1-(oxetane-3-carboxamido)ethyl)phenyl)carbamate]
2.60	26.2	O=C(Nc1ccc(CCC2CCNCC2)cc1)OCc1cnco1 [Compound 252, oxazol-5-ylmethyl (4-(2-(piperidin-4-yl)ethyl)phenyl)carbamate hydrochloride]
0.21	3.53	CN(C)S(=O)(=O)N1CCC(Cc2ccc(NC(=O)OCc3cnco3)cc2)CC12CC2 (stereo not shown) [Compound 440, oxazol-5-ylmethyl (4-((4-(N,N-dimethylsulfamoyl)-4-azaspiro[2.5]octan-7-yl)methyl)phenyl)carbamate]
1.98	24.4	COc1ccc(COC(=O)Nc2ccc(COC3CCN(C(C)=O)CC3)cc2)cc1 [Compound 217, 4-methoxybenzyl (4-(((1-acetylpiperidin-4-yl)oxy)methyl)phenyl)carbamate]
3.51	14.5	CO[C@H]1CC[C@@H](NC(=O)Cc2ccc(NC(=O)OCc3ccc(Cl)cc3)cc2)CC1 [Compound 280, (4-chlorophenyl)methyl N-[4-({[(1s,4s)-4-methoxycyclohexyl]carbamoyl}methyl)phenyl]carbamate]
1.69	21.9	CC(=O)N1CCN(Cc2ccc(NC(=O)OCc3ccc(Cl)cc3)cc2)CC1 [Compound 191, (4-chlorophenyl)methyl N-{4-[(4-acetylpiperazin-1-yl)methyl]phenyl}carbamate]
0.27	4.57	COC(=O)N1CCC2(CC(Cc3ccc(NC(=O)OCc4cnco4)cc3F)C2)C1 (stereo not shown) [Compound 371, methyl 2-(2-fluoro-4-(((oxazol-5-ylmethoxy)carbonyl)amino)benzyl)-6-azaspiro[3.4]octane-6-carboxylate]
0.66	3.41	CN1CC(=O)NC[C@@H]1c1ccc(NC(=O)OCc2ccc(Cl)cc2F)cc1 [Compound 81, 4-chloro-2-fluorobenzyl (S)-(4-(1-methyl-5-oxopiperazin-2-yl)phenyl)carbamate]
0.23	10.7	NC(=O)c1ccc(COC(=O)Nc2ccc(Cc3ccncc3)cc2)cc1 [Compound 14, 4-carbamoylbenzyl (4-(pyridin-4-ylmethyl)phenyl)carbamate]
15.55	26	O=C(Nc1ccc(Cc2ccncc2)cc1)OCc1ccncn1 [Compound 349, pyrimidin-4-ylmethyl (4-(pyridin-4-ylmethyl)phenyl)carbamate]
0.32	12.7	CS(=O)(=O)N1CCC(Cc2ccc(NC(=O)OCc3cnco3)cc2)CC12CC2 (stereo not shown) [Compound 419, oxazol-5-ylmethyl (4-((4-(methylsulfonyl)-4-azaspiro[2.5]octan-7-yl)methyl)phenyl)carbamate]
0.07	2.94	O=C(Nc1ccc(C2CCN(S(=O)(=O)N3CCC3)CC2)cc1)OCc1cnco1 [Compound 428, oxazol-5-ylmethyl (4-(1-(azetidin-1-ylsulfonyl)piperidin-4-yl)phenyl)carbamate]

AC1.4 Human [µM]	EC50 [µM]	Compound
1.11	3.83	CCc1cc(C(=O)N[C@@H](C)c2ccc(NC(=O)OCc3ccc(Cl)cc3)cc2)n(C)n1 [Compound 137, (4-chlorophenyl)methyl N-{4-[(1S)-1-[(5-ethyl-2-methylpyrazol-3-yl)formamido]ethyl]phenyl}carbamate]
1.76	8.59	O=C(Nc1ccc(C2CCN(C3COC3)CC2)cc1)OCc1ccc(Cl)cc1 [Compound 198, (4-chlorophenyl)methyl N-{4-[1-(oxetan-3-yl)piperidin-4-yl]phenyl}carbamate]
0.59	11.1	C[C@H](NC(=O)[C@@H]1C[C@@H]2[C@H](C1)C2(F)F)c1ccc(NC(=O)OCc2cnco2)cc1 [Compound 68, 1,3-oxazol-5-ylmethyl N-{4-[(1S)-1-{[(1R,3s,5S)-6,6-difluorobicyclo[3.1.0]hexan-3-yl]formamido}ethyl]phenyl}carbamate]
1.64	9	Cc1noc(C(=O)N(C)Cc2ccc(NC(=O)OCc3ccc(Cl)cc3)cc2)c1C [Compound 190, (4-chlorophenyl)methyl N-(4-{[1-(3,4-dimethyl-1,2-oxazol-5-yl)-N-methylformamido]methyl}phenyl)carbamate]
0.14	7.25	O=C(Nc1ccc(CC2CCN(S(=O)(=O)N3CCC3)CC2)cc1)OCc1cnco1 [Compound 465, oxazol-5-ylmethyl (4-((1-(azetidin-1-ylsulfonyl)piperidin-4-yl)methyl)phenyl)carbamate]
1.36	4.5	COc1ncc(C(=O)NCc2ccc(NC(=O)OCc3ccc(Cl)cc3)cc2)cn1 [Compound 162, (4-chlorophenyl)methyl N-(4-{[(2-methoxypyrimidin-5-yl)formamido]methyl}phenyl)carbamate]
1.91	10.6	Cc1nc(C)c(C(=O)NCc2ccc(NC(=O)OCc3ccc(Cl)cc3)cc2)o1 [Compound 211, (4-chlorophenyl)methyl N-(4-{[(2,4-dimethyl-1,3-oxazol-5-yl)formamido]methyl}phenyl)carbamate]
2.83	9.46	C[C@H]1CCCN(C(=O)Cc2ccc(NC(=O)OCc3ccc(Cl)cc3)cc2)C1 [Compound 261, (4-chlorophenyl)methyl N-(4-{2-[(3S)-3-methylpiperidin-1-yl]-2-oxoethyl}phenyl)carbamate]
0.10	25.6	CC(=O)N1CCC(c2ccc(NC(=O)OCc3cnco3)cc2F)CC1 [Compound 413, oxazol-5-ylmethyl (4-(1-acetylpiperidin-4-yl)-3-fluorophenyl)carbamate]
0.93	5.53	CN(Cc1ccc(NC(=O)OCc2ccc(Cl)cc2)cc1)C(=O)N1CCC1 [Compound 112, 4-chlorobenzyl (4-((N-methylazetidine-1-carboxamido)methyl)phenyl)carbamate]
0.37	21.7	CC(=O)N1CCC(Cc2ccc(NC(=O)OCc3cnco3)cc2)CC1 [Compound 31, oxazol-5-ylmethyl (4-((1-acetylpiperidin-4-yl)methyl)phenyl)carbamate]
0.95	3.13	C[C@H](NC(=O)c1cccnc1)c1ccc(NC(=O)OCc2ccc(Cl)cc2)cc1 [Compound 118, (4-chlorophenyl)methyl N-{4-[(1S)-1-(pyridin-3-ylformamido)ethyl]phenyl}carbamate]
0.12	3.78	CN(C)C(=O)N1CCC(Cc2ccc(NC(=O)OCc3cnco3)cc2)CC12CC2 (stereo not shown) [Compound 442, oxazol-5-ylmethyl (4-((4-(dimethylcarbamoyl)-4-azaspiro[2.5]octan-7-yl)methyl)phenyl)carbamate]
0.10	14.3	CS(=O)(=O)N1CC2(CC(Cc3ccc(NC(=O)OCc4cnco4)cc3F)C2)C1 [Compound 404, oxazol-5-ylmethyl (3-fluoro-4-((2-(methylsulfonyl)-2-azaspiro[3.3]heptan-6-yl)methyl)phenyl)carbamate]
0.03	26.2	CC(C)C(=O)N1CCC(c2ccc(NC(=O)OCc3cnco3)cc2F)CC1 [Compound 414, oxazol-5-ylmethyl (3-fluoro-4-(1-isobutyrylpiperidin-4-yl)phenyl)carbamate]
0.09	5.64	CC(=O)N1CCC2(CC(c3ccc(NC(=O)OCc4cnco4)cc3F)C2)C1 (single isomer, unassigned) [Compound 372]
3.95	50.3	CCc1cc(C(=O)N(C)Cc2ccc(NC(=O)OCc3ccc(Cl)cc3)cc2)n(C)n1 [Compound 289, (4-chlorophenyl)methyl N-(4-{[1-(5-ethyl-2-methylpyrazol-3-yl)-N-methylformamido]methyl}phenyl)carbamate]

Compound	AC1.4 Human [µM]	EC50 [µM]
O=C(Nc1ccc(CC2CC3CCC(C2)N3S(=O)(=O)C2CCC2)cc1)OCc1cnco1 (stereo not shown) [Compound 394, oxazol-5-ylmethyl (4-((8-(cyclobutylsulfonyl)-8-azabicyclo[3.2.1]octan-3-yl)methyl)phenyl)carbamate]	0.19	4.62
